From PMC3849007 (Journal of Experimental & Clinical Cancer Research : CR, 2013)
pIC50: −log10 of the molar value.

What was measured:
[1] = tested on: BJ-hTERT fibroblasts; assay: Proliferation assay, normal telomerised fibroblasts; format: cell-based, human; details: 0.5 μM, culture day 2 to 8
Experimental: BJ fibroblasts expressing hTERT (BJ-hTERT) or hTERT and SV40 early region (BJ-EHLT), were obtained as previously reported. Cells were grown in Dulbecco Modified Eagle Medium (D-MEM, Invitrogen Carlsbad, CA, USA) supplemented with 10% fetal calf serum, 2 mM L-glutamin and antibiotics.
5 × 10^4 cells were seeded in 60-mm Petri plates (Nunc, MasciaBrunelli, Milano, Italy) and 24 h after plating, 0.5 μM of freshly dissolved compound was added to the culture medium. Cell counts (Coulter Counter, Kontron Instruments, Milano, Italy) and viability (trypan blue dye exclusion) were determined daily, from day 2 to day 8 of culture.

[2] = tested on: h-Tel quadruplex (Q) DNA, 5'-biotin-d[AG3(T2AG3)3] (DNA, G4) AGGGTTAGGGTTAGGGTTAGGG; assay: surface plasmon resonance; details: 200 mM KCl; 10 mM HEPES, 3 mM EDTA, 0.01% P20, pH 7.4
[3] = tested on: duplex (D) DNA hairpin, 5'-biotin-CGA3T3C(CT)2GA3T3CG (DNA, hairpin) CGAAATTTCCTCTGAAATTTCG; assay: surface plasmon resonance; details: 200 mM KCl; 10 mM HEPES, 3 mM EDTA, 0.01% P20, pH 7.4
[4] = tested on: NCI60 panel; assay: NCI60 panel growth inhibition; format: cell-based, human
[5] = tested on: h-Tel (anti-parallel) quadruplex; assay: CD thermal unfolding of h-Tel quadruplex; format: binding, human; details: for CD study thermal stability ∆Tm: compared to h-Tel without bound ligand (Tm 70 ± 3); for CD study thermal stability Tm: h-Tel 4 μM with 3.5 mol.equiv. ligand, K+ solution, unfolding at 290 nm
Experimental: CD spectra were recorded on an Applied Photophysics Pi-Star-180 spectrophotometer (Applied Photophysics Ltd, Surrey, UK). The optical system was configured with a 75 W Xe lamp, circular light polarizer and end-mounted photomultiplier. The instrument had previously been calibrated with (D)-camphorsulfonic acid. Temperature was regulated using a Neslab RTE-300 circulating programmable water bath (Neslab Inc). CD spectra were recorded at 298 K in a 10 mm path length cell over a wavelength range of 215–345 nm in steps of either 1 0r 2 nm, with 3 nm entrance/exit slit widths: the number of counts was set to 10,000 with adaptive sampling set to 500,000. The spectra were corrected by subtracting the spectrum of the same buffer solution of 100 mM potassium chloride and 10 mM potassium phosphate at pH 7.0. Annealing and melting profiles were recorded using a thermoelectric temperature controller (Melcor) on 4 μM DNA samples with and without 3.5 mol.equiv. of ligands using 0.5 K temperature increments and a cooling or heating rate of 0.2 K/min over the temperature range 298-368 K.
This analysis was extended to examine the effects of ligand binding on thermal stability by measuring the unfolding curves at 290 nm of the complexes formed in K^+ solution, corresponding to the CD spectra shown in Figure 4a. Monitoring the thermal unfolding transition for h-Tel produces a sigmoidal unfolding curve with a transition mid-point Tm value of 72 ± 3°C (Figure 4c). All three ligands show significant effects in enhancing the stability of the quadruplex by shifting the Tm values to higher temperatures (∆Tm ~ 15-19°C compared to h-Tel without bound ligands) (Table 1).

[6] = tested on: Telomere dysfunction Induced Foci in BJ-EHLT fibroblasts; assay: TIF analysis (γH2AX/TRF1 co-localization); format: cell-based, human; details: 24 hrs; for number of TIFs per nucleus: mean
Experimental: Cells were fixed in 2% formaldehyde and permeabilized in 0.25% Triton X100 in PBS for 5 min at room temperature. For immunolabeling, cells were incubated with primary antibody, then washed in PBS and incubated with the secondary antibodies. The following primary antibodies were used: pAb and mAb anti-TRF1 (Abcam Ltd.; Cambridge UK); mAb (Upstate, Lake Placid, NY) and pAb anti-γH2AX (Abcam). The following secondary antibody were used: TRITC conjugated Goat anti Rabbit, FITC conjugated Goat anti Mouse (Jackson ImmunoResearch Europe Ltd., Suffolk, UK). Fluorescence signals were recorded by using a Leica DMIRE2 microscope equipped with a Leica DFC 350FX camera and elaborated by a Leica FW4000 deconvolution software (Leica, Solms, Germany). This system permits to focus single planes inside the cell generating 3D high-resolution images. For quantitative analysis of γH2AX positivity, 200 cells on triplicate slices were scored. For TIF’s analysis, in each nucleus a single plane was analyzed and at least 50 nuclei per sample were scored.

[7] = tested on: h-Tel 5'-d[AGGG(TTAGGG)3]-3' (DNA, G4) AGGGTTAGGGTTAGGGTTAGGG; assay: CD melting at 290 nm; details: 110 mM K+ (100 mM KCl, potassium phosphate), 10 mM potassium phosphate, pH 7.0, 4 μM DNA, 3.5 mol equiv. ligand
[8] = tested on: human tumor xenografted nude mice; design: method as in PMID 19010844; details: cited from earlier work
[9] = target: telomerase; design: method as in PMID 15304549; details: Trap assay; read-out: telomerase inhibition IC50; cited from earlier work
[10] = target: T1, M2 muscarinic receptor (Homo sapiens, UniProt P08172); assay: Cerep ExpresSProfile receptor screen, M2; details: data not shown, read-out: % inhibition of ligand binding, M2 muscarinic receptor
T1 construct: purchased Cerep (ExpresSProfile screen, contract service)
Experimental: (§1) To investigate the molecular bases of cardio toxicity, the agent was tested for its potential to interact with a panel of 54 pharmacological receptors, the majority being human recombinant receptors (Cerep ExpresSProfile screen) (http://www.cerep.fr).

[11] = target: T2, M1 muscarinic receptor (Homo sapiens, UniProt P11229); assay: Cerep ExpresSProfile receptor screen, M1; details: data not shown, read-out: % inhibition of ligand binding, M1 muscarinic receptor
T2 construct: purchased Cerep (ExpresSProfile screen, contract service)
Experimental: as §1

[12] = target: T3, M3 muscarinic receptor (Homo sapiens, UniProt P20309); assay: Cerep ExpresSProfile receptor screen, M3; details: data not shown, read-out: % inhibition of ligand binding, M3 muscarinic receptor
T3 construct: purchased Cerep (ExpresSProfile screen, contract service)
Experimental: as §1

T2 sequence (P11229 whole entry): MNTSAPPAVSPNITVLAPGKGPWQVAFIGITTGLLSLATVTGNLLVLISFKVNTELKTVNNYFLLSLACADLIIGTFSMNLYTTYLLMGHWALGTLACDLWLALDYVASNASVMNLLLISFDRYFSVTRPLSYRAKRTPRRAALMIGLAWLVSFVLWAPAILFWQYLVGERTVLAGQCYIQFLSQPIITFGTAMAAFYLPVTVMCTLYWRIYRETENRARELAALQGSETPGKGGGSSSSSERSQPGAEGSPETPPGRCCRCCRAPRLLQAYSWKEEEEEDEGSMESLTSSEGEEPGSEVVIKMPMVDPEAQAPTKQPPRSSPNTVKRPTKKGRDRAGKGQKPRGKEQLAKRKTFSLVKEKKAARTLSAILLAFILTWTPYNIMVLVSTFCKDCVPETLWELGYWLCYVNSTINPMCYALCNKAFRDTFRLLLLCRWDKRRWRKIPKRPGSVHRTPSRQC
T1 sequence (P08172 whole entry): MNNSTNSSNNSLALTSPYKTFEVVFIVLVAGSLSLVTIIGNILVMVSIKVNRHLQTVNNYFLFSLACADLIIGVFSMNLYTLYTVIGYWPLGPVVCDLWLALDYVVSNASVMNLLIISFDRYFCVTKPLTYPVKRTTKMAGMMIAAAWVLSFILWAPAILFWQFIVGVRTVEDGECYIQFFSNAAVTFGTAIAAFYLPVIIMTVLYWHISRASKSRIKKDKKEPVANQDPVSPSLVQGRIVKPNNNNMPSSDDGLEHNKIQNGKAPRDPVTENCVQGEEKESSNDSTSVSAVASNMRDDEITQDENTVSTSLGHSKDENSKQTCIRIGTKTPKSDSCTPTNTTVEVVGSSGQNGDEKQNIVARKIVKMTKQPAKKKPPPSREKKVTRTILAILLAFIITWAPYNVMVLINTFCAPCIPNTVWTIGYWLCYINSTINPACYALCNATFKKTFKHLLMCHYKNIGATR
T3 sequence (P20309 whole entry): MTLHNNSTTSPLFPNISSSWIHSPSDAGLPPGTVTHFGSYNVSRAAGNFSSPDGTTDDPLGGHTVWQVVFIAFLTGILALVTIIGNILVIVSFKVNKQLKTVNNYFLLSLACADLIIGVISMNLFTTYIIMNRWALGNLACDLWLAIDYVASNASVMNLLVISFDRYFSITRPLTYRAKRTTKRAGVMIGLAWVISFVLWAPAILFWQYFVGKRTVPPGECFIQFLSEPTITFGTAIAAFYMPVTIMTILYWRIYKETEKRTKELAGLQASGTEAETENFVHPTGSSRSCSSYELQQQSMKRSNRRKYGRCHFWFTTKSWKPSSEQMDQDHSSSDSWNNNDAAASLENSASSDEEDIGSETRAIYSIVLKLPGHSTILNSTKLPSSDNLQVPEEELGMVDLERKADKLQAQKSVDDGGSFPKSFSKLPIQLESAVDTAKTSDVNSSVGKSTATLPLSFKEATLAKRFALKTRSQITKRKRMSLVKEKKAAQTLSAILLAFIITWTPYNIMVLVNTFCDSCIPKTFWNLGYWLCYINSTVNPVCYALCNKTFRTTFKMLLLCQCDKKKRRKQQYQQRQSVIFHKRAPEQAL

CC(=O)Nc1ccc2c(c1)c1cccc3c1c([n+]2C)-c1ccccc1N3C [Compound 3, 3-acetylamino-8,13-dimethyl-8H-quino[4,3,2-kl]-acridinium iodide]
inhibition of cell proliferation in normal telomerized fibroblasts [1]: did not induce inhibition of cell proliferation | K [2]: 8e+06 M⁻¹ | K [3]: 700000 M⁻¹ | GI50 ([4]; Homo sapiens, NCI data, read-out: Mean GI50 value from the NCI60 panel): 81.3 µM | effect on cell proliferation in a panel of different histotype tumor cell lines ([4]; several human cancer cell lines): maintained an anti-proliferative effect | CD study thermal stability ∆Tm [5]: 15 °C | CD study thermal stability Tm [5]: 85 ± 3 °C | percentage of TIF-positive cells ([6]; cells with more than four γH2AX/TRF1 co-localizations): significant but less pronounced effect | number of TIFs per nucleus [6]: six | ∆Tm ([7]; Tm 85 ± 3): 15 °C

Cc1cc2c3c([n+](C)c4ccc(F)cc4c3c1)-c1cc(F)ccc1N2C [Compound 1, 3,11-Difluoro-6,8,13-trimethyl-8H-quino[4,3,2-kl]acridinium metho-sulfate]
K [2]: 8.3e+06 M⁻¹ | toxic deaths or body weight loss ([8]; efficacious doses, during or after treatment): no toxic deaths or body weight loss | histological analysis of organs and tissues ([8]; end of treatment): no evidence of lesions or morphological alterations | haemodynamic effect just after administration ([8]; treated vs control mice, with heart rate and cardiac output decrease): marked but reversible hypotension | K [3]: 600000 M⁻¹ | pIC50 [9]: 6.48 | inhibition at 1 µM [10]: > 95% | inhibition at 1 µM [11]: > 95% | CD study thermal stability ∆Tm [5]: 16 °C | CD study thermal stability Tm [5]: 86 ± 3 °C | number of TIFs per nucleus [6]: ca. eight | inhibition at 1 µM [12]: > 95% | ∆Tm ([7]; Tm 86 ± 3): 16 °C
